Experimental data reported in US8664199B2, “Method and system for reversal of interactions between hydrophobically modified biopolymers and vesicles or cell membranes” (University of Maryland, College Park, priority 2010, dated 2014).
Entries after “also recorded” stand apart in the source; their conditions may differ.

Legend:
[1] = Dynamic rheology of hm-chitosan + vesicle mixtures; assay type: physicochemical; settings: 28.6 mM cyclodextrin; hm-chitosan 0.238 wt %, vesicles 0.952 wt %
From the text: (§1) The surfactant system employed was a mixture of the cationic surfactant, cetyl trimethylammonium tosylate (CTAT), and the anionic surfactant, sodium dodecyl benzene sulfonate (SDBS). The surfactants were purchased from Aldrich, and all solutions were made using distilled-deionized water. The phase diagram for CTAT/SDBS mixtures has been reported previously.^31 To form vesicles, CTAT and SDBS were mixed at a weight ratio of 70/30, respectively, at a combined 2 wt % concentration in water. The mixture was stirred overnight to ensure complete dissolution and equilibration of the vesicles prior to experiments.
(§2) Steady and dynamic rheological experiments were performed on a […] AR2000 stress-controlled rheometer. A cone-and-plate geometry of 40 mm diameter and 4° cone angle was used and samples were run at the physiological temperature of 37° C. Dynamic frequency spectra were obtained in the linear viscoelastic regime of the samples, as determined from dynamic strain sweep experiments.
However, at practical time scales, the hm-chitosan+vesicle+α-CD mixture behaves as a freely flowing liquid.

human heparinized blood [2] = assay: Visual observation / vial inversion of blood gelled by hm-chitosan; assay type: cell-based; settings: 3 wt % α-CD added to blood gel formed with 0.25 wt % hm-chitosan
Protocol: (§3) 5 human subjects volunteered to have 20 mL of blood drawn by a registered nurse at the UMD School of Medicine. Subjects were healthy adults ranging age from 20 to 40 years of age (4 males, 1 female). 10 mL intervals of blood were drawn into Becton Dickinson Vacutainers® containing 143 USP units of sodium heparin. The protocol was approved by the Institutional Research Board (IRB) at UMD.
FIG. 3(a) is a photograph of human heparinized blood gelled by 0.25 wt % hm-chitosan. […] Note that this sample […] hold its own weight upon vial inversion.

[3] = general statement, no test described; cited from earlier work
[4] = Steady shear rheology of hm-chitosan + vesicle mixtures; assay type: physicochemical; settings: for zero-shear viscosity: hm-chitosan (benz-C18, 1.5% modified) 0.238 wt %, 37° C.; for zero-shear viscosity / viscosity drop on addition of cyclodextrin: vesicles 0.952 wt %; for viscosity drop on addition of cyclodextrin: 28.6 mM vs 0 mM cyclodextrin, hm-chitosan 0.238 wt %; for reversal of gelation of vesicles by hm-chitosan: hm-chitosan and vesicle mixtures
From the text: as §1, §2
The concentrations of hm-chitosan and vesicles were held constant at 0.238 wt % and 0.952 wt %, respectively, in both samples. One sample contained 0 mM α-CD (open diamonds) and the other contained 28.6 mM α-CD (open circles).

human heparinized blood [5] = assay: Dynamic rheology of hm-chitosan blood gel; assay type: cell-based; settings: 3 wt % α-CD, 0.25 wt % hm-chitosan blood gel, 37° C.
Protocol: as §3, §2

| SMILES | dynamic rheology behaviour as ω→0 (long time scales) [1] | dynamic rheology response [1] | reversal of blood gelation (visual observation) (human heparinized blood [2]) | solubility (solvent) [3] | zero-shear viscosity ([4]; 28.6 mM cyclodextrin) | viscosity drop on addition of cyclodextrin [4] | reversal of gelation of vesicles by hm-chitosan [4] | dynamic rheology response (G′, G″) of blood gel after supramolecule (human heparinized blood [5]) | zero-shear viscosity ([4]; 0 mM cyclodextrin, in Pa·s) | viscosity drop relative to the drop caused by α-CD ([4]; 28.6 mM cyclodextrin) |
| --- | --- | --- | --- | --- | --- | --- | --- | --- | --- | --- |
| OC[C@H]1O[C@@H]2O[C@H]3[C@H](O)[C@@H](O)[C@@H](O[C@H]4[C@H](O)[C@@H](O)[C@@H](O[C@H]5[C@H](O)[C@@H](O)[C@@H](O[C@H]6[C@H](O)[C@@H](O)[C@@H](O[C@H]7[C@H](O)[C@@H](O)[C@@H](O[C@H]1[C@H](O)[C@H]2O)O[C@@H]7CO)O[C@@H]6CO)O[C@@H]5CO)O[C@@H]4CO)O[C@@H]3CO [α-CD, α-cyclodextrin] | G′ and G″ are observed to overlap, indicating the onset of gelation over long time scales | viscous liquid | quickly reverse the gelling and convert the sample into a thin, flowing liquid; also recorded: instantly reverse the gelling and convert the sample into a thin, flowing liquid; also recorded: disruption of the gel into a freely flowing viscous liquid | soluble in water | ~0.01 Pa·s | million-fold | reverse the gelation of vesicles by hm-chitosan | liquid-like with G″>G′ over the frequency range |  |  |
| OC[C@H]1O[C@@H]2O[C@H]3[C@H](O)[C@@H](O)[C@@H](O[C@H]4[C@H](O)[C@@H](O)[C@@H](O[C@H]5[C@H](O)[C@@H](O)[C@@H](O[C@H]6[C@H](O)[C@@H](O)[C@@H](O[C@H]7[C@H](O)[C@@H](O)[C@@H](O[C@H]8[C@H](O)[C@@H](O)[C@@H](O[C@H]1[C@H](O)[C@H]2O)O[C@@H]8CO)O[C@@H]7CO)O[C@@H]6CO)O[C@@H]5CO)O[C@@H]4CO)O[C@@H]3CO [β-CD, β-cyclodextrin] |  |  |  | more soluble in ethyl alcohol |  |  |  |  |  |  |
| OC[C@H]1O[C@@H]2O[C@H]3[C@H](O)[C@@H](O)[C@@H](O[C@H]4[C@H](O)[C@@H](O)[C@@H](O[C@H]5[C@H](O)[C@@H](O)[C@@H](O[C@H]6[C@H](O)[C@@H](O)[C@@H](O[C@H]7[C@H](O)[C@@H](O)[C@@H](O[C@H]8[C@H](O)[C@@H](O)[C@@H](O[C@H]9[C@H](O)[C@@H](O)[C@@H](O[C@H]1[C@H](O)[C@H]2O)O[C@@H]9CO)O[C@@H]8CO)O[C@@H]7CO)O[C@@H]6CO)O[C@@H]5CO)O[C@@H]4CO)O[C@@H]3CO [γ-CD, γ-cyclodextrin] | G′ and G″ are not observed to overlap, indicating that the sample does not become more gel-like as t→∞ | viscous liquid |  | soluble in water |  | thousand-fold | reverse the gelation of vesicles by hm-chitosan |  | ~10^1 | thousand-fold lower |
